Reference: PMC11412900 (Molecular Psychiatry, 2024)
Where two headings read alike, the source gives them in different places.

Key:
[1] = target: T1, h5-HT1AR (Homo sapiens, UniProt P08908); experiment: Radioligand binding, [3H]8-OH-DPAT displacement; conditions: 0.4 nM [3H]8-OH-DPAT, N ≥ 3; read-out: 5-HT1AR Ki ± SD
T1 construct: purchased Perkin Elmer, Inc. (Waltham, MA, USA)
T1 sequence (P08908 1-422): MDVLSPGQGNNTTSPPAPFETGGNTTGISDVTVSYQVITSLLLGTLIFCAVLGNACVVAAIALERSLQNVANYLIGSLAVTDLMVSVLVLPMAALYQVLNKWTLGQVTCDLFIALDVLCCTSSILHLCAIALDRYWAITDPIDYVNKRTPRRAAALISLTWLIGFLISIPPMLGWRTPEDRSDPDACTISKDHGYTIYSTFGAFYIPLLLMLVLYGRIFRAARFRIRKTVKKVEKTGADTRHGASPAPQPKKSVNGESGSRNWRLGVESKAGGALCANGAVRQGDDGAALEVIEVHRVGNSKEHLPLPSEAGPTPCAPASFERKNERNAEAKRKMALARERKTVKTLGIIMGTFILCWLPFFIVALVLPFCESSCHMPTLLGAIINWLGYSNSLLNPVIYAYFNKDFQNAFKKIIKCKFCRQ
Method: (§1) Binding assays were performed as described previously. Briefly, membrane preparations expressing h5-HT1AR, h5-HT2AR or hSERT (see Supplementary Material) were incubated with radiolabeled selective ligands 0.4 nM [^3H]8-OH-DPAT, 1 nM [^3H]ketanserin or 3 nM [^3H]imipramine, respectively. The drugs were diluted in the corresponding binding buffer and tested at increasing concentrations in duplicate. Binding reactions were performed in tubes containing the drug dilutions; 25 μl of the corresponding radioligand; and the membranes (10 μg and 5 μg/500 μL for 5-HT1AR and 5-HT2AR, respectively, and 15 μg/100 μL for hSERT), all diluted in binding buffer. […] Incubation was performed for 1 h at 27 °C for 5-HT1A/2AR and 22 °C for hSERT, according to the manufacturer’s protocol (Perkin Elmer, Inc., Waltham, MA, USA) and previous studies - saturation and kinetic experiments, respectively. The binding reactions were stopped by rapid filtration through GF/B glass microfiber filters pre-soaked with 0.5% polyethyleneimine and washing with ice-cold wash buffer. The filters were placed into vials and scintillation cocktail was added. The trapped radioactivity was quantified. Specific binding was defined as the difference between total binding (binding buffer alone) and non-specific binding. Experiments were conducted per duplicate for at least three independent experiments.

[2] = target: T2, h5-HT2AR (Homo sapiens, UniProt P28223); format: binding; conditions: 1 nM [3H]ketanserin, N ≥ 3; read-out: 5-HT2AR Ki ± SD
T2 construct: purchased Perkin Elmer, Inc. (Waltham, MA, USA)
T2 sequence (P28223 whole entry): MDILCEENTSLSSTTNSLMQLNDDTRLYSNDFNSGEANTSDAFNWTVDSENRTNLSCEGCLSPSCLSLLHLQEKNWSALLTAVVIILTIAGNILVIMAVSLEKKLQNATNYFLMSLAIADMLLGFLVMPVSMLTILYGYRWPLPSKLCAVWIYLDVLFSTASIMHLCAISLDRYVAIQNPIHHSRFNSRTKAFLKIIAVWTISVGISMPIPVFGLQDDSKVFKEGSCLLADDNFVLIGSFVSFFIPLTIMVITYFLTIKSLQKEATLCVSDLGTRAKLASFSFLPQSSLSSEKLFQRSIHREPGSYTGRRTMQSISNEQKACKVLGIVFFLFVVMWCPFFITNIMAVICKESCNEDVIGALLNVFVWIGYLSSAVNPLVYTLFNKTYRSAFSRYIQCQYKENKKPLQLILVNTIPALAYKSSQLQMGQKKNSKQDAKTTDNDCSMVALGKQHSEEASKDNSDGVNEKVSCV
Method: as §1

[3] = target: T3, SERT (Homo sapiens, UniProt P31645); experiment: Radioligand binding, [3H]imipramine displacement
T3 construct: YFP (yellow-fluorescent protein); expressed in transfected cells
T3 sequence (P31645 whole entry): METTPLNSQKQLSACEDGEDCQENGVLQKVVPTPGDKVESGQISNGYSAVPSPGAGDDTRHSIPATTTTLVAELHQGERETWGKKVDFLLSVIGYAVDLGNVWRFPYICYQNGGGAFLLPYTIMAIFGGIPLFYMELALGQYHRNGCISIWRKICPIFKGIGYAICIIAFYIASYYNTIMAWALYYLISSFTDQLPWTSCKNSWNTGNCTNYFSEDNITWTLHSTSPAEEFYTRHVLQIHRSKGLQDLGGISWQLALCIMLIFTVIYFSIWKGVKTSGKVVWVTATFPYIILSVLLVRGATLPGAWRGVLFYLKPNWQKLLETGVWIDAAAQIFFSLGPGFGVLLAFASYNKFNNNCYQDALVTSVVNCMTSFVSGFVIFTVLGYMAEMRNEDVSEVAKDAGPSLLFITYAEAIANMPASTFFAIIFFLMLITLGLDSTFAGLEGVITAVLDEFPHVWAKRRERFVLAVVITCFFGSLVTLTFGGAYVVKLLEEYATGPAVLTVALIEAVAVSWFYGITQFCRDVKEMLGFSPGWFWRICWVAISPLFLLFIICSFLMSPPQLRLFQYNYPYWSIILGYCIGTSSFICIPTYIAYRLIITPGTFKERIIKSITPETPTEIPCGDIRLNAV
Method: as §1
(§2) The generation and maintenance of HEK293 cells stably expressing the yellow-fluorescent protein (YFP)-tagged version of the human isoform of SERT (hSERT) (Perkin Elmer, Waltham, MA, USA) was carried out as described previously. For uptake inhibition and batch release assays, cells were seeded onto previously poly-D-lysine (PDL)-coated 96-well plates at a density of 0.036 million cells per well [5]. For superfusion release assays, cells were seeded onto a previously coated with PDL 6 channel µ-slide at a density of 0.08 million cells per channel. Prior to patching, cells were grown in DMEM containing 10% FBS, Zeocin (150 µg/mL) and Blasticidin (6 µg/mL) for positive selection of transporter-expressing clones. The cells were seeded at a low density on PDL-coated 35 mm plates 24-48 hr prior to patching. For membrane preparation, HEK293 cells expressing hSERT transporters were harvested from 80–90% confluent dishes as described elsewhere. Protein concentration was determined using the Bio-RadProtein Reagent (Bio Rad Laboratories, Hercules, CA, USA). Membrane preparations were stored at −80°C until use. Generation and maintenance of CHO-K1 cells expressing the human isoform of 5-HT2AR (h5-HT2AR) was carried out as described in the manufacturer’s protocol (Perkin Elmer, Waltham, MA, USA). Routine DAPI-Staining assays tested negative in mycoplasma contamination.

[4] = target: T3, SERT; experiment: [3H]5-HT uptake inhibition in HEK293 cells expressing hSERT; format: cell-based
Method: See the Supplementary Material for cell culture procedures. The medium was removed from each well and replaced with 200 μL/well of Krebs-HEPES-Buffer (KHB). The cells were pre-incubated for 5 min with different concentrations of drug in KHB at 50 μL/well. […] The incubation solution was aspirated and the cells were washed with ice-cold KHB and lysed with 1% sodium dodecyl sulfate (SDS). The lysate was collected into vials and scintillation liquid was added. The radioactivity was quantified using a beta-scintillation counter (Perkin Elmer, Waltham, MA, USA). Non-specific uptake was determined in the presence of 30 μM paroxetine. Data were expressed as percentage of control uptake (absence of tryptamine).
as §2

[5] = system: head twitch response in mice; experiment: Head twitch response (HTR); format: in vivo; conditions: for HTR Emax (95% CI): 10-min period; for Effect of antagonist pretreatment on tryptamine-induced HTR: antagonist s.c. 1 mg/kg 10 min before tryptamine i.p. 10 mg/kg
Method: HTR studies were adapted from. Mice (N = 8–10 per group) were injected intraperitoneally (i.p.) with saline or the appropriate tryptamine dose (0.3, 1, 3, 10, or 30 mg/kg) and placed into the observation arena (25 × 25 × 40 cm). A camera mounted above the observation cage recorded the mice for the next 10 min after the injection. Another batch of animals (N = 8–10) received subcutaneous injections of either saline or the respective antagonist (WAY100635 1 mg/kg for 5-HT1AR or ketanserin 1 mg/kg for 5-HT2AR). After a 10-min interval, the animals were i.p. injected with the corresponding tryptamine (10 mg/kg) and placed in the observation arena. Animal behavior was recorded for the next 10 min after the last injection, as mentioned before. Video recordings were examined by two blind observers blinded to the treatments, who assessed the number of head twitches, defined as a rapid rotational jerk of the head which is not contiguous with any grooming behavior [39].
(§3) Data were expressed as means±standard deviation (SD). Competition, release and functional assays, and substrate-induced current curves were plotted and fitted by non-linear regression to obtain the IC50, EC50, and Emax values. For behavioral studies, data were fitted by non-linear regression and pED50 and Emax values (with the corresponding 95% CI) were estimated by means of a software (GraphPad Prism 10) that further extrapolates the data. The Cheng-Prusoff equation was used to calculate Ki (affinity): Ki = […]/(1 + [radioligand-concentration/Kd]). HTR curves were fitted using a Gaussian equation as described. Data from batch release assays were statistically analyzed with a mixed-effects model, employing Šidák’s correction for multiple comparisons. Total release at each concentration and the behavioral experiments with the corresponding antagonists were statistically analyzed using one-way ANOVA, followed by Tukey’s post-hoc test. Molecular volume (van der Waals) was calculated using a grid approximation (spacing 0.75 Å). logP was calculated using Molinspiration Cheminformatics software. For in vivo studies, one-way ANOVA with Dunnet’s post-hoc test was used to compare all conditions to saline in dose-response experiments when data were normally distributed. Otherwise, a non-parametric test (Kruskall-Wallis with Dunn’s post-hoc test) was used. Alpha was set at 0.05. Outliers were excluded following ROUT’s method (Q = 0.1%). All statistical analyses and Pearson correlations were conducted using GraphPad Prism 10 software (GraphPad software, San Diego, CA, USA).

[6] = system: core body temperature in mice; experiment: Core body temperature measurement; format: in vivo
Method: Rectal temperature of mice (N = 8–10 per group) was measured 60 min after i.p. injection of the corresponding compound (see previous section “Head twitch response”). This time point was chosen according to the maximal effect observed in pilot experiments. A thermocouple probe (YS451, Panlab, Barcelona, Spain) connected to a digital thermometer (TMP812RS, Panlab, Barcelona, Spain) was inserted 2 cm into the rectum and steady temperature readout was obtained after 10 s of insertion.
as §3

[7] = system: horizontal locomotor activity in mice; experiment: Horizontal locomotor activity (HLA); format: in vivo; conditions: i.p., 30 min; for HLA (hypolocomotion) Emax (95% CI): total traveled distance
Method: The HLA test was carried out according to a previous study. The same animals (N = 8–10 per group) used for the assessment of HTR were recorded for 30 min in an observation arena, under low-light conditions with white noise. Video recordings were processed using a tracking software (Smart 3.0 Panlab, Barcelona, Spain) to measure the total traveled distance.
as §3

[8] = target: T3, SERT; experiment: Batch release of preloaded [3H]5-HT from HEK293 cells expressing SERT; format: cell-based; conditions: with or without monensin, pCA as positive control
Method: Batch release is a functional radiometric assay to assess transporter-mediated efflux. […] Subsequently, cells were washed three times with KHB and equilibrated for 10 min in KHB or KHB+monensin (10 µM). […] 10 µM pCA and 0.05 µM paroxetine were used as positive and negative controls, respectively. Liquid scintillation cocktail was added both to the wells containing cells (200 µL) and to the transferred supernatant (100 µL). Total radioactivity determined from/in the remaining lysate of the cells plus the transferred supernatant was set as 100%, and the radioactivity determined in each fraction was expressed as a percentage thereof. Assays were performed per duplicate for five independent experiments.

[9] = target: T3, SERT; experiment: Whole-cell patch clamp, transporter-mediated currents in HEK293 cells; format: cell-based
Description: Whole-cell patch clamping was used to measure the transporter-mediated currents and performed as previously described. […] Cells were continuously superfused by a DAD-12 superfusion system and an 8-tube perfusion manifold (ALA Scientific Instruments in Farmingdale, NY, USA), which allowed to apply a physiological external solution. The pipette solution mimics the internal ionic composition of a cell. […] Passive holding currents were subtracted, and the traces were filtered using a 50-Hz digital Gaussian low-pass filter for analysis purposes. Five independent experiments were performed.

[10] = 3 nM [3H]imipramine, N ≥ 3, read-out: SERT Ki ± SD
[11] = read-out: 5-HT uptake inhibition IC50 ± SD, HEK293 hSERT, N ≥ 3
[12] = mice, i.p., 10 min after injection
[13] = mice, i.p., 60 min after injection

## COc1ccc2[nH]cc(CCNC(C)C)c2c1 [5-MeO-NIPT]
[1]
  Ki: 0.0157 ± 0.0023 µM
[2]
  Ki: 0.123 ± 0.038 µM
[3]; [10]
  Ki: 8.59 ± 1.71 µM
[4]; [11]
  IC50: 32.1 µM
[5]; mice, i.p.
  HTR Emax (95% CI): 7.58 (5.46–9.71) HTR events
[5]; [12]
  HTR ED50: 4.85 mg/kg
[6]; [13]
  Change in body temperature ED50: 7.35 mg/kg
[7]
  HLA (hypolocomotion) ED50: 1.96 mg/kg
  HLA (hypolocomotion) Emax (95% CI): 77.64 (69.78–85.50) % reduction

## C=CCN(C)CCc1c[nH]c2ccc(OC)cc12 [5-MeO-MALT]
[1]
  Ki: 0.00596 ± 0.00047 µM
[2]
  Ki: 0.0529 ± 0.009 µM
[3]; [10]
  Ki: 4.01 ± 0.417 µM
[4]; [11]
  IC50: 44.1 µM
[5]; mice, i.p.
  HTR Emax (95% CI): 27.6 (23.2–32.0) HTR events
[5]; [12]
  HTR ED50: 0.796 mg/kg
[6]; [13]
  Change in body temperature ED50: 10.2 mg/kg
[7]
  HLA (hypolocomotion) ED50: 7.32 mg/kg
  HLA (hypolocomotion) Emax (95% CI): 85.40 (55.18–115.6) % reduction

## COc1ccc2[nH]cc(CCN(C)C)c2c1 [5-MeO-DMT, 5-methoxy-N,N-dimethyltryptamine]
[3]
  Ki: 14.5 µM
[4]
  IC50: 50.1 µM
[5]; Mus musculus, ip, 10 min, mice, i.p., 10 min after injection
  ED50: 4.84 mg/kg
[5]; mice, i.p.
  HTR Emax (95% CI): 38.1 (31.7–44.5) HTR events
[6]; Mus musculus, ip, 1 h, mice, i.p., 60 min after injection, read-out: Change in body temperature ED50
  ED50: 4.75 mg/kg
[7]; Mus musculus, ip, 0.5 h, read-out: HLA (hypolocomotion) ED50
  ED50: 0.976 mg/kg
[7]
  HLA (hypolocomotion) Emax (95% CI): 41.72 (32.18–51.26) % reduction
[8]
  5-HT releasing activity: capable of evoking 5-HT release
[9]
  EC50: 2.6 µM
[9]; normalized to current elicited by 5-HT 10 µM
  SERT-mediated inward current Emax: 0.41
[9]; whole-cell patch clamp
  SERT substrate type: partial SERT substrates

## COc1ccccc1N1CCN(CCN(C(=O)C2CCCCC2)c2ccccn2)CC1 [WAY100635, reference compound]
[5]
  Effect of antagonist pretreatment on tryptamine-induced HTR: the number of head twitches increased significantly
[6]; antagonist s.c. 1 mg/kg before tryptamine i.p. 10 mg/kg, 60 min
  Effect of antagonist pretreatment on tryptamine-induced decrease in body temperature: the decrease in body temperature was lower

## O=C(c1ccc(F)cc1)C1CCN(CCn2c(=O)[nH]c3ccccc3c2=O)CC1 [ketanserin, reference compound]
[5]
  Effect of antagonist pretreatment on tryptamine-induced HTR: prevented HTR response
